Here are results for one compound from patent publication US20210177892A1, “PREVENTION AND TREATMENT OF INFECTIOUS DISEASE USING LOW CONCENTRATION HYPOCHLOROUS ACID SOLUTIONS” (Wonder Spray, LLC, priority 2019, published 2021).

Data set [1] deals with Streptococcus pneumoniae ATCC 49619. The data set is described as follows: Kill Time Study, Streptococcus pneumoniae. The format is cell-based. As to conditions: FIG. 3. The protocol: (§1) For example, FIG. 3 and FIG. 4 illustrate tables of the effect of a solution of HOCl on Streptococcus pneumoniae and Streptococcus pyogenes, respectively. The organisms in this test were prepared by inoculating the surface of about 5% Sheep blood agar plates, incubated at about 30 to 35° C. for 18 to 24 hours. Following the incubation period, the plates were washed with sterile Serological Saline Solution to harvest the microorganisms used and dilutions with Saline were made, plated on blood agar and incubated at 30 to 35° C. for 24-48 hours to determine the concentration. The inoculum level was then adjusted to […] for use as a stock suspension. Stock suspensions were well mixed and homogenized at each inoculation interval.
(§2) Positive controls were performed at initiation and completion by spread plating to enumerate inoculum levels and verify culture purity during testing and Negative controls were performed to establish sterility of media, reagents, and materials used at initiation. Neutralizer Suitability using Modified Letheen Broth (MLB) was performed concurrently with Kill Time testing to confirm the recovery of <100 CFU of the test organism in the subculture media in the presence of product. Duplicate 10 ml containers for each treated specimen or material concentration was prepared, equilibrated to 25±2° C., and 0.1 ml of inoculum is added to each container to achieve a final concentration of 10^6 cfu/ml.
(§3) Serial dilutions from each replicate were made at intervals of 15 second, 30 second, 1 minute and 5 minutes using 1 ml of the inoculated test product into 9 ml MLB from 1:10 to 1:1000000. Subsequently, 1 ml from each dilution was spread plated on 5% Sheep Blood agar plate in duplicate, incubated at 30 to 35° C. for 48 hours. After the incubation period, all plates were counted to determine the number of microorganisms, results are averaged and reported as log 10 reductions.

In data set [2] the test system is Streptococcus pyogenes ATCC 49399. The data set is described as follows: Kill Time Study, Streptococcus pyogenes. The conditions noted are these: FIG. 4. Type of data set: cell-based. The protocol:
as §1, §2, §3

For a further data set, the system named is f2 RNA. As to conditions: cited from earlier work.
For data set [3] the following is noted: inhalation; cited from earlier work.
A further data set concerns E. coli. The conditions noted are these: 50 mM (2.6 ppm), within 5 minutes; cited from earlier work.

Regarding `OCl` [HOCl, Hypochlorous acid], in data set [1], the “time in which bacteria that cause pneumonia are effectively killed” value is given as “less than 15 seconds”. In addition, in data set [1] (after fifteen seconds), the “cfu/ml of Streptococcus pneumoniae after the HOCl solution was applied” value was “less than 10 cfu/ml”, the “log 10 reduction for Streptococcus pneumoniae” value is 6.057 log 10 and the “percent reduction for Streptococcus pneumoniae” value worked out at 99.99%. In data set [2], the “time in which bacteria that cause strep throat are effectively killed” value is reported as “less than 15 seconds”. In data set [2] (after fifteen seconds), the “cfu/ml of Streptococcus pyogenes after the HOCl solution was applied” value was “less than 10 cfu/ml”, the “log 10 reduction for Streptococcus pyogenes” value was 6.086 log 10 and the “percent reduction for Streptococcus pyogenes” value is on record as 99.99%. Also, the “inactivation of naked f2 RNA compared with RNA in intact phage” value in the data set on f2 RNA is listed as “inactivated naked f2 RNA at the same rate as RNA in intact phage”. Besides, the “adverse effects of inhaling the aerosolized form” value in data set [3] is reported as “no adverse effects”. Also, in the data set with E. coli, the “inhibition of DNA synthesis in E. coli” value is given as “ninety-six” and the “inhibition of the growth of E. coli” value is on record as “completely inhibited the growth”.
